Results taken from patent US12559474B2, “Triazine derivatives having virus replication inhibitory activity and pharmaceutical composition comprising the same” (priority 2021, dated 2026).
Read-outs that look alike come from different tables or passages of the source.

Legend:
[1] = tested on: SARS-CoV-2; experiment: microbe, parasite or virus in culture; type: cell-based; settings: Severe acute respiratory syndrome coronavirus 2, VeroE6/TMPRSS2, 72 h, 50% SARS-CoV-2 infected cell death inhibitory concentration, VeroE6/TMPRSS2 cells, 3 days culture
[2] = target: SARS-CoV-2 3CL protease (Severe acute respiratory syndrome coronavirus 2, UniProt P0DTD1); experiment: biochemical; settings: 50% SARS-CoV-2 3CL protease inhibitory concentration, read-out: IC50

| SMILES | EC50 ([1]; class symbols) [µM] | IC50 ([2]; given as class symbols) [µM] | EC50 ([1]; CellTiter-Glo 2.0) [µM] | IC50 ([2]; RapidFire MS) [µM] |
| --- | --- | --- | --- | --- |
| Cc1nc2cc(Cl)c(Nc3nc(=O)n(-c4cccc5ccccc45)c(=O)n3Cc3cc(F)c(F)c(F)c3)cc2n1C [Compound I-0456] | 1 to 10 | < 0.1 | – | – |
| Cn1cnc(Cn2c(=O)nc(Nc3cc4c(cc3Cl)OCC4)n(Cc3cc(F)c(F)c(F)c3)c2=O)n1 [Compound I-0482] | – | – | 0.385 | 0.015 |
| N#Cc1cc(Cn2c(Nc3ccc4c(c3)CCO4)nc(=O)n(-c3cncc4ccccc34)c2=O)cc(F)c1F [Compound I-0481] | – | – | 0.0432 | 0.0027 |
| N#Cc1cc(Cn2c(Nc3cc4c(cc3Cl)OCC4)nc(=O)n(Cc3ccc[nH]c3=O)c2=O)cc(F)c1F [Compound I-0011] | < 1 | < 0.1 | – | – |
| Cc1cncc(-n2c(=O)nc(Nc3ccc4nc(NCC(F)(F)F)sc4c3)n(Cc3cc(F)c(F)c(C#N)c3)c2=O)c1 [II-0295] | 1 to 10 | < 0.1 | – | – |
| Cc1cncc(-n2c(=O)nc(Nc3cc4cn(C)nc4cc3Cl)n(Cc3ccc(F)cc3F)c2=O)c1 [II-0185] | < 1 | < 0.1 | – | – |
| COc1ccc(Nc2nc(=O)n(Cc3ncn(C)n3)c(=O)n2Cc2cc(F)c(F)c(F)c2)cc1 [Compound I-0335] | 1 to 10 | 0.1 to 1 | – | – |
| Cn1nc2cc(Cl)c(Nc3nc(=O)n(-c4cncc5ccccc45)c(=O)n3Cc3cc(F)c(F)c(F)c3)cc2c1F [II-0462] | < 1 | < 0.1 | – | – |
| Cn1cc2cc(Nc3nc(=O)n(-c4cncc(Cl)c4)c(=O)n3Cc3cc(Cl)c(F)cn3)c(Cl)cc2n1 [II-0592] | 1 to 10 | < 0.1 | – | – |
| N#Cc1cc(Cn2c(Nc3ccc4c(c3)CCO4)nc(=O)n(-c3cncc(C(F)F)c3)c2=O)ccc1F [Compound I-0349] | 1 to 10 | < 0.1 | – | – |
| Cc1cncc(-n2c(=O)nc(Nc3cc4cn(CC(F)F)nc4cc3F)n(Cc3cc(F)c(F)cc3F)c2=O)c1 [II-0355] | < 1 | < 0.1 | – | – |
| Cn1cc2cc(Nc3nc(=O)n(CC(=O)NC4CCCCC4)c(=O)n3Cc3cc(F)c(F)c(F)c3)c(Cl)cc2n1 [II-0330] | – | – | 42.2 | 3.6 |
| Cn1cnc(Cn2c(=O)nc(Nc3cc4cn(C)nc4cc3Cl)n(Cc3ccc(F)c(C#N)c3)c2=O)n1 [II-0286] | 1 to 10 | < 0.1 | – | – |
| Cc1cncc(-n2c(=O)nc(N3CCC(C)(C)CC3)n(Cc3cc(F)c(F)c(F)c3)c2=O)c1 [II-0222] | < 1 | < 0.1 | – | – |
| Cn1cc2cc(Nc3nc(=O)n(-c4cncc(C#N)c4)c(=O)n3Cc3cc(F)c(F)c(F)c3)c(Cl)cc2n1 [II-0491] | 1 to 10 | < 0.1 | – | – |
| Cn1cc2cc(Nc3nc(=O)n(-c4cncc5ccccc45)c(=O)n3Cc3ccc(F)c(C#N)c3)c(F)cc2n1 [Compound I-0429] | < 1 | < 0.1 | – | – |
| CNc1nc2ccc(Nc3nc(=O)n(-c4cncc(C)c4)c(=O)n3Cc3cc(F)c(F)c(C#N)c3)cc2s1 [II-0397] | < 1 | < 0.1 | – | – |
| CC(=O)Nc1nc2ccc(Nc3nc(=O)n(-c4cncc(C)c4)c(=O)n3Cc3ccc(F)c(C#N)c3)cc2s1 [II-0316] | 1 to 10 | < 0.1 | – | – |
| COc1ccc(Nc2nc(=O)n(-c3cncc(C)c3)c(=O)n2-c2cccc(Cl)c2)cc1 [II-0492] | < 1 | – | – | 1 |

| SMILES | EC50 ([1]; class symbols) [µM] | IC50 ([2]; given as class symbols) [µM] | EC50 ([1]; CellTiter-Glo 2.0) [µM] | IC50 ([2]; RapidFire MS) [µM] |
| --- | --- | --- | --- | --- |
| Cn1cnc(Cn2c(=O)nc(Nc3cc4cn(C5CC5)nc4cc3Cl)n(Cc3cc(F)c(F)cc3F)c2=O)n1 [II-0527] | < 1 | < 0.1 | – | – |
| Cn1cc2cc(Nc3nc(=O)n(-c4cncc(C5CC5)c4)c(=O)n3Cc3ccc(F)c(C#N)c3)ccc2n1 [II-0388] | < 1 | < 0.1 | – | – |
| Cc1cncc(-n2c(=O)nc(Nc3cc4cn(CC(F)F)nc4cc3F)n(Cc3cc(F)c(F)c(Cl)c3)c2=O)c1 [II-0058] | < 1 | < 0.1 | – | – |
| Cc1cncc(-n2c(=O)nc(Nc3cc4sc(NCC(F)F)nc4cc3Cl)n(Cc3cc(F)c(F)c(C#N)c3)c2=O)c1 [II-0498] | 1 to 10 | < 0.1 | – | – |
| CNc1nc2cc(F)c(Nc3nc(=O)n(-c4cncc(C)c4)c(=O)n3Cc3ccc(F)c(C#N)c3)cc2s1 [II-0283] | < 1 | < 0.1 | – | – |
| Cn1cc2cc(Nc3nc(=O)n(Cc4cn(C)c(=O)[nH]c4=O)c(=O)n3Cc3cc(F)c(F)c(F)c3)c(Cl)cc2n1 [Compound I-0111] | 1 to 10 | < 0.1 | – | – |
| Cn1cc2cc(Nc3nc(=O)n(-c4cncc5ccccc45)c(=O)n3Cc3cc(F)c(F)c(C#N)c3)ccc2n1 [II-0154] | < 1 | < 0.1 | – | – |
| CCn1cc2cc(Nc3nc(=O)n(Cc4ncn(C)n4)c(=O)n3Cc3cc(F)c(F)cc3F)c(Cl)cc2n1 [II-0548] | – | – | 0.533 | 0.014 |
| Cn1cc2cc(Nc3nc(=O)n(-c4cncc(Cl)c4)c(=O)n3Cc3ccc(F)c(C#N)c3)c(Cl)cc2n1 [II-0120] | – | – | 0.127 | 0.009 |
| Cn1cnc(Cn2c(=O)nc(Nc3cc4sc(NCC(F)F)nc4cc3Cl)n(Cc3cc(F)c(F)c(Cl)c3)c2=O)n1 [II-0243] | 1 to 10 | < 0.1 | – | – |
| Cc1nc2cc(C)c(Nc3nc(=O)n(-c4cncc5ccccc45)c(=O)n3Cc3ccc(F)c(C#N)c3)cc2o1 [II-0192] | – | – | 0.454 | 0.037 |
| O=c1[nH]cccc1Cn1c(=O)nc(-c2ccccc2)n(Cc2cc(F)c(F)c(F)c2)c1=O [Compound I-0329] | – | – | 5.1 | 2 |
| CCn1cc2cc(Nc3nc(=O)n(-c4cncc(C)c4)c(=O)n3Cc3cc(C#N)c(F)cc3C)c(Cl)cc2n1 [II-0233] | – | – | 0.065 | 0.0015 |
| Cc1cncc(-n2c(=O)nc(Nc3cc4c(cc3Cl)nc3n4CCN3)n(Cc3cc(Cl)c(F)cc3F)c2=O)c1 [II-0279] | 1 to 10 | < 0.1 | – | – |
| Cc1nc2ccc(Nc3nc(=O)n(-c4cncc5ccccc45)c(=O)n3Cc3ccc(F)c(C#N)c3)cc2s1 [II-0198] | < 1 | < 0.1 | – | – |
| O=C1CCC(Nc2nc(=O)n(Cc3ccc[nH]c3=O)c(=O)n2Cc2cc(F)c(F)c(F)c2)CN1 (racemic) [Compound I-0133] | < 1 | 1 to 10 | – | 3.4 |
| Cn1cnc(Cn2c(=O)nc(Nc3cc4cn(C)nc4cc3Cl)n(Cc3cccc4ccccc34)c2=O)n1 [II-0223] | – | – | 22.5 | 0.78 |
| Cc1cncc(-n2c(=O)nc(Nc3ccc4nn(CC(F)(F)F)cc4c3)n(Cc3ccc(F)c(C#N)c3)c2=O)c1 [II-0567] | – | – | 0.65 | 0.0088 |
| COc1ccc(Nc2nc(=O)n(-c3cncc(C4CC4)c3)c(=O)n2Cc2cc(F)c(F)c(F)c2)cc1 [II-0272] | – | – | 1.59 | 0.18 |

| SMILES | EC50 ([1]; class symbols) [µM] | IC50 ([2]; given as class symbols) [µM] | EC50 ([1]; CellTiter-Glo 2.0) [µM] | IC50 ([2]; RapidFire MS) [µM] |
| --- | --- | --- | --- | --- |
| Cn1cnc(Cn2c(=O)nc(Nc3cc4cn(C)nc4cc3Cl)n(Cc3cc(F)c(F)c(Cl)c3)c2=O)n1 [II-0045] | – | – | 0.218 | 0.0047 |
| O=c1[nH]cccc1Cn1c(=O)nc(Nc2cc3c(cc2Cl)OCCC3)n(Cc2cc(F)c(F)c(F)c2)c1=O [Compound I-0372] | < 1 | < 0.1 | – | – |
| Cc1cncc(-n2c(=O)nc(Nc3ccc4nc(C)oc4c3)n(Cc3ccc(F)c(C#N)c3)c2=O)c1 [II-0105] | < 1 | < 0.1 | – | – |
| Cc1cncc(-n2c(=O)nc(Nc3cc4cccnc4cc3Cl)n(Cc3ccc(F)c(C#N)c3)c2=O)c1 [II-0463] | < 1 | < 0.1 | – | – |
| Cc1c2cc(Nc3nc(=O)n(Cc4ncn(C)n4)c(=O)n3Cc3cc(F)c(F)cc3F)c(Cl)cc2nn1C [II-0450] | 1 to 10 | < 0.1 | – | – |
| Cc1cncc(-n2c(=O)nc(Nc3cc4c(C)n(C)nc4cc3Cl)n(Cc3ccc(F)c(C#N)c3)c2=O)c1 [II-0436] | < 1 | < 0.1 | – | – |
| O=c1[nH]cc(Cl)cc1Cn1c(=O)nc(Nc2cc3cn([C@H]4CCC[C@@H]4O)nc3cc2Cl)n(Cc2cc(F)c(F)c(F)c2)c1=O [Compound I-0251] | 1 to 10 | < 0.1 | – | – |
| O=c1[nH]cc(F)cc1Cn1c(=O)nc(Nc2cc3c(cc2Cl)OCC3)n(Cc2cc(F)c(F)c(F)c2)c1=O [Compound I-0272] | < 1 | < 0.1 | – | – |
| COCCCc1c2cc(Nc3nc(=O)n(Cc4ccc[nH]c4=O)c(=O)n3Cc3cc(F)c(F)c(F)c3)c(Cl)cc2nn1C [Compound I-0365] | 1 to 10 | < 0.1 | – | – |
| Cc1cc(F)c(C#N)cc1Cn1c(Nc2cc3cn(C)nc3cc2F)nc(=O)n(-c2cncc(Cl)c2)c1=O [II-0365] | < 1 | < 0.1 | – | – |
| Cn1cc2cc(Nc3nc(=O)n(-c4cncc5ccccc45)c(=O)n3Cc3ccc(F)c(C#N)c3)ccc2n1 [Compound I-0353] | – | – | 0.306 | 0.0054 |
| Cn1cnc(Cn2c(=O)nc(Nc3cc4c(-n5cccn5)n(C)nc4cc3Cl)n(Cc3cc(F)c(F)cc3F)c2=O)n1 [II-0461] | 1 to 10 | < 0.1 | – | – |
| Cn1cc2cc(Nc3nc(=O)n(-c4cncc(C#N)c4)c(=O)n3Cc3ccc(F)c(C#N)c3)c(Cl)cc2n1 [II-0486] | 1 to 10 | < 0.1 | – | – |
| CNc1nc2cc(F)c(Nc3nc(=O)n(-c4cncc(Cl)c4)c(=O)n3Cc3ccc(F)c(C#N)c3)cc2s1 [II-0263] | 1 to 10 | < 0.1 | – | – |
| CNc1nc2ccc(Nc3nc(=O)n(-c4cncc(C)c4)c(=O)n3Cc3cc(C#N)c(F)cc3Cl)cc2s1 [II-0421] | < 1 | < 0.1 | – | – |
| Cn1cnc(Cn2c(=O)nc(Nc3cc4cn(C)nc4cc3Cl)n(Cc3cc(Cl)ccc3F)c2=O)n1 [II-0361] | < 1 | < 0.1 | – | – |
| C[C@H](O)Cn1cc2cc(Nc3nc(=O)n(Cc4cc(Cl)c[nH]c4=O)c(=O)n3Cc3cc(F)c(F)c(F)c3)c(Cl)cc2n1 [Compound I-0402] | 1 to 10 | < 0.1 | – | – |
| Cn1cc2cc(Nc3nc(=O)n(-c4cncc5c4COC5)c(=O)n3Cc3cc(F)c(F)c(F)c3)c(Cl)cc2n1 [II-0503] | 1 to 10 | < 0.1 | – | – |
| Cn1cnc(Cn2c(=O)nc(Nc3cc4cn(C)nc4cc3Cl)n(Cc3cc(Cl)ccc3Cl)c2=O)n1 [II-0591] | < 1 | < 0.1 | – | – |
